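Five concentrations, 48 hours, 96-well plates. The concentration for 50% growth inhibition is given as GI50.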 Calls of active or inactive are those of the source. Rule as the data show it: active = GI50 up to about 1.1 µM and inactive = higher.
What was measured:
Assay in all cases: DTP human tumour cell line panel, 48 h
[1] = system: NCI/ADR-RES
[2] = system: Malme-3M
[3] = system: U-251
[4] = system: RPMI-8226
[5] = system: CCRF-CEM
[6] = system: DMS-114
[7] = system: HCC 2998
[8] = system: HOP-62
[9] = system: SNB-75
[10] = system: NCI-H226
[11] = system: NCI-H522
[12] = system: LOX IMVI
[13] = system: HOP-18
[14] = system: A498
[15] = system: MCF7
[16] = system: SK-MEL-5
[17] = system: COLO 205
[18] = system: MOLT-4
[19] = system: UACC-257
[20] = system: UO-31
[21] = system: SK-OV-3
[22] = system: NCI-H23
[23] = system: CAKI-1
[24] = system: DMS-273
[25] = system: KM-20L2
[26] = system: OVCAR-8
[27] = system: HT-29
[28] = system: EKVX
[29] = system: SN12C
[30] = system: SW-620
[31] = system: SK-MEL-28
[32] = system: UACC-62
[33] = system: A549
[34] = system: OVCAR-3
[35] = system: SF-539
[36] = system: DLD-1
[37] = system: IGROV-1
[38] = system: SNB-19
[39] = system: HCT-116
[40] = system: HL-60
[41] = system: KM12
[42] = system: XF498
[43] = system: SF-295
[44] = system: K562
[45] = system: M19-MEL
[46] = system: OVCAR-4
[47] = system: HOP-92
[48] = system: SF-268
[49] = system: SK-MEL-2
[50] = system: SNB-78
[51] = system: HCT-15
[52] = system: OVCAR-5
[53] = system: RXF 393
[54] = system: NCI-H460

CCOC(=O)c1ccc(N[C@@H]2c3cc4c(cc3C(c3cc(OC)c(O)c(OC)c3)[C@H]3C(=O)OCC32)OCO4)cc1O (stereo not given in full)
GI50 [1]: 4.43 µM (inactive) | GI50 [2]: 0.757 µM (active) | GI50 [3]: 0.92 µM (active) | GI50 [4]: 0.94 µM (active) | GI50 [5]: 0.211 µM (active) | GI50 [6]: 0.56 µM (active) | GI50 [7]: 1.92 µM (inactive) | GI50 [8]: 0.306 µM (active) | GI50 [9]: 0.548 µM (active) | GI50 [10]: 0.256 µM (active) | GI50 [11]: 0.665 µM (active) | GI50 [12]: 0.185 µM (active) | GI50 [13]: 2.25 µM (inactive) | GI50 [14]: 0.607 µM (active) | GI50 [15]: 0.723 µM (active) | GI50 [16]: 1.19 µM (inactive) | GI50 [17]: 1.18 µM (inactive) | GI50 [18]: 0.0207 µM (active) | GI50 [19]: 2.91 µM (inactive) | GI50 [20]: 0.34 µM (active) | GI50 [21]: 0.738 µM (active) | GI50 [22]: 0.9 µM (active) | GI50 [23]: 0.331 µM (active) | GI50 [24]: 0.299 µM (active) | GI50 [25]: 2.2 µM (inactive) | GI50 [26]: 1.77 µM (inactive) | GI50 [27]: 0.546 µM (active) | GI50 [28]: 2.25 µM (inactive) | GI50 [29]: 1.64 µM (inactive) | GI50 [30]: 0.942 µM (active) | GI50 [31]: 1.22 µM (inactive) | GI50 [32]: 0.469 µM (active) | GI50 [33]: 0.0946 µM (active) | GI50 [34]: 2.43 µM (inactive) | GI50 [35]: 0.685 µM (active) | GI50 [36]: 1.44 µM (inactive) | GI50 [37]: 2.68 µM (inactive) | GI50 [38]: 0.652 µM (active) | GI50 [39]: 0.505 µM (active) | GI50 [40]: 0.133 µM (active) | GI50 [41]: 0.579 µM (active) | GI50 [42]: 1.3 µM (inactive) | GI50 [43]: 0.498 µM (active) | GI50 [44]: 0.78 µM (active) | GI50 [45]: 0.893 µM (active) | GI50 [46]: 7.69 µM (inactive) | GI50 [47]: 1.19 µM (inactive) | GI50 [48]: 0.789 µM (active) | GI50 [49]: 0.809 µM (active) | GI50 [50]: 1.77 µM (inactive) | GI50 [51]: 1.09 µM | GI50 [52]: 1.06 µM (active) | GI50 [53]: 1.88 µM (inactive) | GI50 [54]: < 0.01 µM (active)

CC1C(O)C2(Oc3cc4c(c5c3[C@@H](CC5O)[C@H]2C)CCC2Cc3nc5c(nc3C[C@@]42C)CC2CCC3C4=C[C@H]6O[C@@]7(O[C@@](C)(CO)C[C@@H]7O)C(C)[C@@]6(O)[C@]4(C)[C@@H](O)CC3[C@]2(C)C5)OC1(C)C (stereo not given in full)
GI50 [1]: 2.9 µM (inactive) | GI50 [2]: 0.0927 µM (active) | GI50 [3]: 0.00302 µM (active) | GI50 [4]: 0.0364 µM (active) | GI50 [5]: 0.0582 µM (active) | GI50 [6]: 0.104 µM (active) | GI50 [7]: 0.536 µM (active) | GI50 [8]: 0.0715 µM (active) | GI50 [9]: 0.00543 µM (active) | GI50 [10]: 0.135 µM (active) | GI50 [11]: 0.123 µM (active) | GI50 [12]: 0.115 µM (active) | GI50 [13]: 2.01 µM (inactive) | GI50 [14]: 0.0652 µM (active) | GI50 [15]: 0.117 µM (active) | GI50 [16]: 0.237 µM (active) | GI50 [17]: 0.152 µM (active) | GI50 [19]: 0.614 µM (active) | GI50 [20]: 1.08 µM (active) | GI50 [21]: 0.139 µM (active) | GI50 [22]: 0.114 µM (active) | GI50 [23]: 0.148 µM (active) | GI50 [24]: 0.0304 µM (active) | GI50 [25]: 0.0975 µM (active) | GI50 [26]: 0.428 µM (active) | GI50 [27]: 0.0977 µM (active) | GI50 [28]: 0.123 µM (active) | GI50 [29]: 0.377 µM (active) | GI50 [30]: 0.201 µM (active) | GI50 [32]: 0.0877 µM (active) | GI50 [33]: 0.0581 µM (active) | GI50 [34]: 0.0891 µM (active) | GI50 [35]: 0.078 µM (active) | GI50 [36]: 1.1 µM (active) | GI50 [37]: 0.128 µM (active) | GI50 [39]: 0.12 µM (active) | GI50 [40]: 0.0644 µM (active) | GI50 [41]: 0.241 µM (active) | GI50 [42]: 0.115 µM (active) | GI50 [43]: 0.00531 µM (active) | GI50 [44]: 0.098 µM (active) | GI50 [45]: 0.863 µM (active) | GI50 [46]: 0.498 µM (active) | GI50 [47]: 0.204 µM (active) | GI50 [48]: 0.0904 µM (active) | GI50 [49]: 0.114 µM (active) | GI50 [50]: 0.0494 µM (active) | GI50 [51]: 0.649 µM | GI50 [52]: 0.435 µM (active) | GI50 [53]: 0.0269 µM (active) | GI50 [54]: 0.0735 µM (active)
